The subject of one experiment is Her2 in SKBr3 cells. Nature of the experiment: Her2-blot (whole-cell immunoassay of Her2 degradation). Type of experiment: cell-based, human. As to the method: The human cancer cell lines SKBr3 and A431 were obtained from the American Type Culture Collection (Manassas, Va.) and maintained in 1:1 mixture of DME:F12 supplemented with 2 mM glutamine, 50 units/mL penicillin, 50 units/mL streptomycin and 5% heat inactivated fetal bovine serum (FBS) (Gemini Bioproducts) and incubated at 37° C. in 5% CO2. Stock culture was grown in T-175 flasks containing 30 mL of DME (HG, F-12, non-essential amino acids, and penicillin and streptomycin), with glutamine, and 10% FBS. Cells were dissociated with 0.05% trypsin and 0.02% EDTA in phosphate buffer saline (PBS) without calcium and magnesium. Experimental cultures of SKBr3 were plated in black, clear-bottom microtiter plates (Corning # 3603) (3,000 cells per well) in growth medium ([…]), and allowed to attach for at least 48 h at 37° C. and 5% CO2. Some wells were left without cells to serve as the blank. Growth medium (100 μL) with drug or vehicle (DMSO) was carefully added to the wells and the microtiter plates were placed at 37° C. and 5% CO2. […] Following incubation (6 h or 24 h), wells were washed twice with ice-cold tris buffer saline (TBS) containing 0.1% Tween20 (TBST) (200 μL). A house vacuum source attached to an 8-channel aspirator was used to remove the liquid from the microplates. Further, methanol (100 μL at −20° C.) was added to each well and the plate was left at 4° C. for 10 min. Methanol was removed by washing with TBST (2×200 μL). The plate was further incubated at RT for 1 h with SuperBlock® (Pierce # 37535) (200 μL) and overnight at 4° C. with the anti-Her-2 antibody (Santa Cruz Biotechnology # SC-284) ([…], 1:200 in SuperBlock®). Each well was washed with TBST (2×200 μL) and incubated at RT for 2 h with an anti-rabbit HRP-linked antibody (Sigma # A0545) (100 μL, 1:1000 in SuperBlock®). […] The plate was read 5 min later in an Analyst AD plate reader (Molecular Devices). […] Readings from wells containing only control IgG and the corresponding HRP-linked secondary antibody were set as background and deducted from all measured values. […]

The next experiment has as its target Hsp90 beta (Homo sapiens, UniProt P08238). In words: Fluorescence polarization competitive displacement of GM-BODIPY, Hsp90 beta. Type of experiment: binding. The note with it: 30 nM Hsp90 beta, 5 nM GM BODIPY, 7 h. From the text: Specific ligand binding was plotted against the log10 inhibitor concentration and EC50 values calculated using a non linear least square curve fitting program in Prism 4.0.
(In general: Polarisation of emitted light reports the rotation of a fluorescent probe.)

Another experiment has as its target T1, Hsp90 alpha (Homo sapiens, UniProt P07900).
T1 construct: purchased Stressgen SPP776
In words: Fluorescence polarization competitive displacement of GM-BODIPY from Hsp90. Type of experiment: binding. The note with it: ratio of EC50 values.

In experiment [1] the test system is tumor hsp90 versus normal tissue Hsp90. In words: Fluorescence polarization assay with tumor cell and normal tissue lysates. Type of experiment: binding. The note with it: FIG. 11 and FIG. 22C. As to the method:
For use in the assay of the invention, cell lysates are made using the following protocol • collect cells • adherent cells: trypsinize (or scrape), harvest cells in 15 ml conical tubes and centrifuge at 1,600 RPM for 5 minutes at 2 to 8 C • (use confluent T-175 flask to obtain 0.5 ml of lysate) • floating cells: pellet cells by centrifugation 1600 rpm for 5 minutes at 2 to 8 C • wash 2× with 5 ml of PBS buffer • resuspend the pellet in 1 ml of PBS buffer and transfer cells to an eppendorf tube • centrifuge, aspirate supernatant, and freeze the pellet O/N at −70° C. • resuspend in lysis buffer B (Felts buffer) (1×10^6 cells per 100 l of buffer B) • incubate on the rotor for 2 hours at 2 to 8° C. • centrifuge the samples at 13,200 RPM for 30 min at 2 to 8° C. • transfer the supernatant to a fresh tube • quantitate protein concentration with the Pierce BCA assay • add 0.5 uL of 1M DTT/mL lysate • store samples at −70 C; before conducting an experiment thaw samples on ice and keep samples on ice throughout the course of experiment.
Cellular lysates were prepared in this manner from normal brain tissue, CML cell line K562 and breast cancer cell line SKBr3. For constructing a saturation curve, 5 nM GM BODIPY was added to the lysate, and the fluorescence polarization assay of the invention was performed. […]
The assay is stable and results in reproducible data (6-24 h readings presented). […]

Where [2] appears, read: Homo sapiens, SK-BR-3, Her2-blot, read-out: IC50 for Her2 degradation.

The record followed here is patent publication US20070178537A1, “Assays for detection of bioactive compounds that interact with heat shock protein 90” (Sloan-Kettering Institute for Cancer Research, priority 2003, published 2007).

“And” between values parts separate entries of the source, which are not always exact repeats. Equal entries are not always repeated. Where two headings read alike, the source gives them in different places.

Sequence of Hsp90 beta (P08238 whole entry): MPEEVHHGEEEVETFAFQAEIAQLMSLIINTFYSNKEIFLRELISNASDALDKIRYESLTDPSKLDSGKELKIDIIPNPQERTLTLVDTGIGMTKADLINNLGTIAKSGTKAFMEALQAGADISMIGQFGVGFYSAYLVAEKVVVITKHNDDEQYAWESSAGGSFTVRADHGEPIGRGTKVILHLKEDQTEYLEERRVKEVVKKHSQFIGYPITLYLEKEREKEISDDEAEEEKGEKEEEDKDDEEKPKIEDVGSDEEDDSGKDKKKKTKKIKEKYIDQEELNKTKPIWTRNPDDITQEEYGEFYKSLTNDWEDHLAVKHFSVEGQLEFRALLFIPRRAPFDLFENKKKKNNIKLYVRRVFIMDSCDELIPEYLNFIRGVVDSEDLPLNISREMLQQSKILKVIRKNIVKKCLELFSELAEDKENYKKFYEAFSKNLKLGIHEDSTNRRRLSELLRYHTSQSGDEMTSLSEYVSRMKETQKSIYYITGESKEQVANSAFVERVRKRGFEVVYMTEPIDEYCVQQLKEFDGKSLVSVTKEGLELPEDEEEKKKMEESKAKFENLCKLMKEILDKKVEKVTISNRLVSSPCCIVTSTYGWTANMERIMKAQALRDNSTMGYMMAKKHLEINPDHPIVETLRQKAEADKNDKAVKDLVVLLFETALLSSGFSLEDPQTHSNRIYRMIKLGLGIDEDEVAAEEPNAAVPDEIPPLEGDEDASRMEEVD
Source text for Hsp90 alpha: The method comprises the steps of: • (a) combining the candidate molecule with Hsp90 in the presence of a fluorescently-labeled molecule known to bind to Hsp90; • (b) exciting the fluorescent label using polarized light to produce a fluorescent emission; • (c) observing the degree of polarization of the fluorescent emission; and • (d) comparing the degree of polarization determined in step (c) to a standard value determined for the fluorescently labeled molecule when it is bound to Hsp90. When the fluorescently-labeled molecule is bound to the Hsp90, the emission is substantially polarized. On the other hand, when the fluorescently-labeled molecule has been wholly or partially displaced by candidate molecule, the extent to which the emission is polarized decreases as a result of the rotational freedom of the unbound fluorescently labeled species.
Maximum concentration of used DMSO was 0.25% (v/v). The plate was left on a shaker at 4° C. for 5 h and the FP values in mP were recorded.
Ad-But was again used as a control.
A mixture of 30 nM Hsp90 alpha, 30 nM Hsp90 beta or 200 nM Grp94-His, respectively with 5 nM GM BODIPY was added and the plate incubated at 4EC for 7 h. Specific ligand binding was plotted against the log10 inhibitor concentration and EC50 values calculated using a non linear least square curve fitting program in Prism 4.0.

Take `COC1=C2C[C@@H](C)C[C@H](OC)[C@H](O)[C@@H](C)/C=C(\C)[C@H](OC(N)=O)[C@@H](OC)/C=C\C=C(/C)C(=O)NC(=CC1=O)C2=O` [GM, geldanamycin]: the IC50 in the experiment with Her2 in SKBr3 cells (setting [2]) was found to be 0.017 µM. As to `CCNC(=O)[C@H]1O[C@@H](n2cnc3c(N)ncnc32)[C@H](O)[C@@H]1O` [NECA], the “Inhibition of cytosolic Hsp90 b (FIG. 13A)” value on Hsp90 beta was “does not inhibit”. Regarding `CCCCn1c(Cc2cc(OC)c(OC)c(OC)c2)nc2c(N)ncnc21` [PU3], the “times weaker Hsp90 inhibitor than 17AAG” value at Hsp90 alpha is 30. With `C#CCCCn1c(Cc2cc(OC)c(OC)c(OC)c2Cl)nc2c(N)nc(F)nc21` [PU24FCl], the IC50 in the experiment with Her2 in SKBr3 cells (several plates at different time periods, read-out: IC50s in separate readings of the Her2-blot) is 4 µM and 4.18 µM and 4.54 µM. The “Binding affinity for tumor versus normal tissue Hsp90” value in experiment [1] is “difference in binding affinity”.

Turning to `C[C@@H]1C[C@H]2O[C@@H]2/C=C\C=C\C(=O)Cc2c(Cl)c(O)cc(O)c2C(=O)O1` [RD, radicicol], the IC50 in the experiment with Her2 in SKBr3 cells (setting [2]) stood at 0.028 µM.
